Holding throughout (type): biochemical
Assay [1] deals with T1, Abl kinase (Homo sapiens, UniProt P00519).
T1 sequence (P00519 229-512): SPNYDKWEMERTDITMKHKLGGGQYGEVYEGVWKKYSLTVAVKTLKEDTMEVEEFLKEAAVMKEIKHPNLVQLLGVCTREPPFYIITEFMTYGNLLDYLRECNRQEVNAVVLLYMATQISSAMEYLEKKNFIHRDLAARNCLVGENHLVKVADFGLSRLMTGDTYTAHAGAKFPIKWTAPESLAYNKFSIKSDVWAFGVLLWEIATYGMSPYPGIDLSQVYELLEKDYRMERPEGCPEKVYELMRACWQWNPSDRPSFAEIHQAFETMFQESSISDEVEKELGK
Description: Abl kinase assay A2 (as A1, 1.1 nM enzyme, 2 h pre-incubation, 0.5 mM ATP). To be noted: Method A2; read-out: Abl Data (IC50). The procedure:
(§1) IC50 values were calculated from a series of percent inhibition values determined at a range of inhibitor concentrations using software routines as implemented in the GraphPad Prism software package.

Assay [2] deals with T1, Abl kinase. Description: Abl kinase assay A1 (pyruvate kinase/lactate dehydrogenase coupled, spectrophotometric). To be noted: Method A1; read-out: Abl Data (IC50). As for the experimental part:
as §1

A further assay has as its target KDR kinase (Homo sapiens, UniProt P35968, DEL940-989/E990V). Description: KDR kinase assay K2 (as K1, 2.1 nM enzyme, 2 h pre-incubation, 1.0 mM ATP). To be noted: Method K2; read-out: KDR Data (IC50). As for the experimental part: as §1
The target in a further assay is B-Raf(V599E) kinase (Homo sapiens, UniProt P15056, V600E). As to the kind of experiment: B-Raf(V599E) kinase assay B1 (construct 1, MEK1 substrate, coupled spectrophotometric). The procedure:
The test compounds were incubated with the reaction mixtureat 30° C. for 2 h. […] The reaction rate was calculated using the […] time frame. […] IC50 values were calculated from a series of percent inhibition values determined at a range of inhibitor concentrations using software routines as implemented in the GraphPad Prism software package.

Assay [3] addresses phosphorylated p-38-alpha kinase (Homo sapiens, UniProt Q16539). As to the kind of experiment: P-38 alpha kinase assay P1 (coupled spectrophotometric, 2 h pre-incubation). Conditions: method P1 (2 h pre-incubation); read-out: P-38 Data.

Each structure is given as a SMILES string.

Chain of phosphorylated p-38-alpha kinase (Q16539 1-360 isoform Q16539-2): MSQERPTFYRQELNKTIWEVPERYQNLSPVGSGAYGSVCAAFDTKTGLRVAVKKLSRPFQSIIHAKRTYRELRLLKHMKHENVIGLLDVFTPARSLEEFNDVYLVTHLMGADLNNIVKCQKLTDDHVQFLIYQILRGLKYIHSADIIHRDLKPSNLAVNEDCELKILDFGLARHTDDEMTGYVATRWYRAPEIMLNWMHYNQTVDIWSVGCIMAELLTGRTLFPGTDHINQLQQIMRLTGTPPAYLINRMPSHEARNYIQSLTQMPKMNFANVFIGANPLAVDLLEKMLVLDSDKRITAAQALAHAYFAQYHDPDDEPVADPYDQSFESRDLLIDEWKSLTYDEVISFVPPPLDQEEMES
Chain of KDR kinase (P35968 with tags, fused parts or gaps DEL940-989/E990V): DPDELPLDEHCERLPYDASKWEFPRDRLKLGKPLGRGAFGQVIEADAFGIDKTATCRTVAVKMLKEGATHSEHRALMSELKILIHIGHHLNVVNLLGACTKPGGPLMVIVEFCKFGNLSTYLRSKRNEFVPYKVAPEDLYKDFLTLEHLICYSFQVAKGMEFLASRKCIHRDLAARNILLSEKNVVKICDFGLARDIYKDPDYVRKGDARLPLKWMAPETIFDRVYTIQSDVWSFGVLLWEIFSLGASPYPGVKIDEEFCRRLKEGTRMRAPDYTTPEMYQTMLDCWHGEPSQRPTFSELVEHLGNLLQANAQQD
Chain of B-Raf(V599E) kinase (P15056 with tags, fused parts or gaps V600E): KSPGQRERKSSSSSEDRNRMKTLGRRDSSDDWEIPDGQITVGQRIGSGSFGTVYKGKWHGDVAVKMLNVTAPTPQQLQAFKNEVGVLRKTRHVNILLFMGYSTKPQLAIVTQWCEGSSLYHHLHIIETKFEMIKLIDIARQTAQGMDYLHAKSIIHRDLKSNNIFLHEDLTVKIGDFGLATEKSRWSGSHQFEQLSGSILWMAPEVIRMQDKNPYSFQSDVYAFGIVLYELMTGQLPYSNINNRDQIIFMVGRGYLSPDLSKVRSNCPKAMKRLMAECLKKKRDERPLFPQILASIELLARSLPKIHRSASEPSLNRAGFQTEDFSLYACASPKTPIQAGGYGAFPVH

On to `CC(C)(C)c1cc(NC(=O)Nc2ccc(-c3cccc4c3CNC4=O)cc2)n(-c2ccc3c(c2)CC(C(N)=O)NC3)n1` (stereo not shown) [Example 183, 1-(3-t-butyl-1-(3-carbamoyl-1,2,3,4-tetrahydroisoquinolin-6-yl)-1H-pyrazol-5-yl)-3-(4-(1-oxoisoindolin-4-yl)phenyl)urea], for which the IC50 at Abl kinase [1] was determined as 20 nM.

In the case of `CC(C)(C)c1cc(NC(=O)Nc2cccc(Cl)c2Cl)n(-c2ccc3c(=O)[nH]cnc3c2)n1` [Example 194, 1-(3-t-butyl-1-(4-oxo-3,4-dihydroquinazolin-7-yl)-1H-pyrazol-5-yl)-3-(2,3-dichlorophenyl)urea], the IC50 on Abl kinase [1] was found to be 540 nM.

Consider `CCOC(=O)Cc1cccc(-n2nc(C(C)(C)C)cc2NC(=O)Nc2cccc(Cl)c2Cl)c1` [Example 23, ethyl 2-(3-(3-t-butyl-5-(3-(2,3-dichlorophenyl)ureido)-1H-pyrazol-1-yl)phenyl)acetate], for which the IC50 at Abl kinase [2] came to 3800 nM; on KDR kinase, 1000 nM; against B-Raf(V599E) kinase, 4.8 nM; in assay [3] it was 21 nM.

For the molecule `COc1cccc(-n2nc(C(C)(C)C)cc2NC(=O)Nc2ccc(C#N)cc2)c1` [Example 16, 1-(3-t-butyl-1-(3-methoxyphenyl)-1H-pyrazol-5-yl)-3-(4-cyanophenyl)urea], the IC50 stood at 5900 nM on Abl kinase [2], 3400 nM on KDR kinase and 1300 nM in assay [3].

Turning to `Cn1ccc2cc(-n3nc(C(C)(C)C)cc3NC(=O)Nc3cccc(Cl)c3Cl)ccc21` [Example 117, 1-(3-t-butyl-1-(1-methyl-1H-indol-5-yl)-1H-pyrazol-5-yl)-3-(2,3-dichlorophenyl)urea], the IC50 on Abl kinase [2] was found to be 230 nM; at KDR kinase, 58 nM; against B-Raf(V599E) kinase, 3.2 nM; in assay [3], 59 nM.

`CC(C)(C)c1cc(NC(=O)Nc2ccc(Cl)cc2)n(-c2cccc(C#N)c2)n1` [Example 7, 1-(3-t-butyl-1-(3-cyanophenyl)-1H-pyrazol-5-yl)-3-(4-chlorophenyl)urea]: the IC50 was 5200 nM on Abl kinase [2], 870 nM on KDR kinase and 8.2 nM against B-Raf(V599E) kinase.

For `CC(C)(C)c1cc(NC(=O)Nc2cccc(Cl)c2Cl)n(-c2ccc3c(c2)CC(C(N)=O)NC3)n1` (stereo not shown) [Example 188, 1-(3-t-butyl-1-(3-carbamoyl-1,2,3,4-tetrahydroisoquinolin-6-yl)-1H-pyrazol-5-yl)-3-(2,3-dichloro-phenyl)urea], the IC50 on Abl kinase [2] was 110 nM; at KDR kinase, 150 nM; against B-Raf(V599E) kinase, 5.8 nM; in assay [3], 17 nM.

`CC(C)(C)c1cc(NC(=O)Nc2cccc(Cl)c2Cl)n(-c2ccc3ncccc3c2)n1` [Example 52, 1-[3-t-butyl-1-(quinolin-6-yl)-1H-pyrazol-5-yl]-3-(2,3-dichlorophenyl)urea]: the IC50 worked out at 140 nM at Abl kinase [2], 63 nM at KDR kinase, 1.8 nM against B-Raf(V599E) kinase and 23 nM in assay [3].

Consider `CC(C)(C)c1cc(NC(=O)Nc2cccc(Cl)c2Cl)n(-c2ccc3c(c2)CCN3S(C)(=O)=O)n1` [Example 108, 1-(3-t-butyl-1-(1-(methylsulfonyl)indolin-5-yl)-1H-pyrazol-5-yl)-3-(2,3-dichlorophenyl)urea], for which the IC50 at Abl kinase [2] is 250 nM; at KDR kinase, 13 nM; on B-Raf(V599E) kinase, 1.5 nM; in assay [3] it was 9 nM.

On to `CC(C)(C)c1cc(NC(=O)Nc2cc(F)cc(F)c2F)n(-c2ccc3ncccc3c2)n1` [Example 54, 1-(3-t-butyl-1-(quinolin-6-yl)-1H-pyrazol-5-yl)-3-(2,3,5-trifluorophenyl)urea], for which the results for the IC50 at Abl kinase [2], at KDR kinase and against B-Raf(V599E) kinase were 120 nM, 240 nM and 4.8 nM, respectively.

As to `COc1ccc(-n2nc(C(C)(C)C)cc2NC(=O)Nc2cccc(Cl)c2Cl)cc1` [Example 18, 1-[3-t-butyl-1-(4-methoxyphenyl)-1H-pyrazol-5-yl]-3-(2,3-dichlorophenyl)urea], the IC50 on Abl kinase [2] worked out at 830 nM; on KDR kinase it was 240 nM; against B-Raf(V599E) kinase, 458 nM.

Values taken from patent US8163756B2 (priority 2004, dated 2012).
